Reference: patent publication US20240218059A1, “TGF-Beta 1 INHIBITORS FOR PREVENTING AND TREATING SARS-COV-2” (The Regents of the University of Colorado, A Body Corporate, priority 2020, published 2024)

Experiments:
[1] = test system: active TGF-β1 signaling; assay: inhibition of active TGF-β1 signaling in MLEC luciferase reporter cells; format: cell-based, mink
Description: In these experiments, SB505124 and galunisertib (Fisher, Inc.) inhibitors were added at 1-2 uM concentrations to MLEC plated in 96-well plates using a 1 hour pre-incubation before addition of human active TGF-β1 in […] concentrations with continued presence of the inhibitor for 18 hours overnight in standard conditions as described in Example 2 methods. A neutraceutical, the green tea catechin ECGC (Sigma) was also tested. Luciferase signals were determined after cell lysis and compared as in Example 2.

[2] = test system: TGF-β1 signaling caused by NSP15 activation of human latent TGF-β1; format: cell-based, mink; conditions: 1 hour pre-incubation; 2 μg/ml of antibody or 1-2 μM small molecule; 0-2.4 nM NSP15 plus 2 nM latent human TGF-β1; MLEC; FIG. 8
[3] = target: T1, human latent TGF-β1 (Homo sapiens, UniProt P01137); format: cell-based; conditions: peptide incubated 45 minutes at 37° C. with 2 nM human latent TGF-β1, then 18 hours on MLEC; FIG. 5
T1 construct: purchased Acrobio, Inc
T1 sequence (P01137 30-278 limits assumed): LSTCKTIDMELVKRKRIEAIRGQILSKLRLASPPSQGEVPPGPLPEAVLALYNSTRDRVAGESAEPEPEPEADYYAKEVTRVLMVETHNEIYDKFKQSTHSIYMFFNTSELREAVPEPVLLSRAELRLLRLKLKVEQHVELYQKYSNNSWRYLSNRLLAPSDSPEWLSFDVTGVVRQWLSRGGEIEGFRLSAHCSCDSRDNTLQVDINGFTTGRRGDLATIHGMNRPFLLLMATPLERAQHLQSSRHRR

| Compound | block of NSP15 mediated effects on TGF-β1 signaling [2] | activation of latent TGF-β1 (luciferase signal, RLU) [3] | also measured |
| --- | --- | --- | --- |
| O=C(O[C@@H]1Cc2c(O)cc(O)cc2O[C@@H]1c1cc(O)c(O)c(O)c1)c1cc(O)c(O)c(O)c1 [ECGC] | – | – | inhibition of active TGF-β1 signaling at higher concentrations ([1]; 80 uM, subsequent experiments, not shown): 80%; effectiveness at blocking active TGF-β1 signaling ([1]; 1-2 μM concentrations, MLEC, FIG. 7): not effective |
| Cc1cccc(-c2nn3c(c2-c2ccnc4ccc(C(N)=O)cc24)CCC3)n1 [galunisertib] | block NSP15 mediated effects on TGF-β1 signaling | – | – |
| DKRFKQDGGWSHWSPW [TSP1] | – | not a significant activator of latent TGF-β1 | – |
| LLIGLAKRFKESPFEL [NSP15 KRFK-region peptide, 16 amino acid synthetic peptide centered on the SARS-CoV2 NSP15 KRFK region] | – | activates latent TGF-β1 | – |
| KFILALRKLLFESEGP [SCR] | – | not | – |
| Cc1cccc(-c2[nH]c(C(C)(C)C)nc2-c2ccc3c(c2)OCO3)n1 [SB505124] | block NSP15 mediated effects on TGF-β1 signaling | – | – |
